By cell viability is commonly meant a read-out of living cells in per cent, often relative to untreated cells.

Consider six molecules from the supplement of paper PMC13380429.

Each structure is given as a SMILES string. Bounds are passed on as bounds.

Details in all cases: 72 h
The subject of test [1] is HepG2. Briefly: drug sensitivity score (DSS) for viability; higher = more toxic; extreme values may be limits of the assay.
In test [2] the test system is HepG2. The test is described as follows: relative viability EC50 (midpoint between 100% and the lowest measured viability); higher = less toxic.
The subject of test [3] is HepG2. The test is described as follows: cell viability relative to DMSO; higher = less toxic.
The subject of test [4] is Vero E6. Briefly: drug sensitivity score (DSS) for viability; higher = more toxic; extreme values may be limits of the assay.
The test system of test [5] is Vero E6. The test is described as follows: relative viability EC50 (midpoint between 100% and the lowest measured viability); higher = less toxic.
Test [6] relates to Vero E6. The test is described as follows: cell viability relative to DMSO; higher = less toxic.
Test [7] concerns U2OS. The test is described as follows: drug sensitivity score (DSS) for viability; higher = more toxic; extreme values may be limits of the assay.
The test system of test [8] is Calu-3. Described as above.
For test [9], the system named is Caco-2. Described as above.
For test [10], the system named is U2OS. The test is described as follows: relative viability EC50 (midpoint between 100% and the lowest measured viability); higher = less toxic.
The subject of test [11] is Caco-2. The description is as above.
The subject of test [12] is U2OS. Briefly: cell viability relative to DMSO; higher = less toxic.
The test system of test [13] is Caco-2. The test is described as above.

`O=C(CCCN1CC=C(n2c(=O)[nH]c3ccccc32)CC1)c1ccc(F)cc1` [droperidol] showed a drug sensitivity score in test [1] of 0. The “relative viability EC50” value in test [2] is > 10 µM. Further, the cell viability came out at 116% in test [3] (1 nM); 113% in test [3] (10 nM); 106% in test [3] (100 nM); 108% in [3] (1000 nM); 89.1% in test [3] (10000 nM).
Molecule `COc1ccc(-c2oc3c(CC=C(C)C)c(O)cc(O)c3c(=O)c2O)cc1` [icaritin] gave a drug sensitivity score in test [4] of 0. The “relative viability EC50” value in [5] was > 10 µM. In addition, the cell viability is 92.9% in test [6] (1 nM); 98.9% in test [6] (10 nM); 96.7% in [6] (100 nM); 93.3% in [6] (1000 nM); 107% in test [6] (10000 nM).
`O.O.O.O.O=C([O-])CC(O)(CC(=O)[O-])C(=O)[O-].[Li+].[Li+].[Li+]` [lithium-citrate]: the drug sensitivity score in test [7], in test [8] and in test [4] was 0 throughout.
With `O=C(O)[C@H](O)c1ccccc1` [mandelic-acid], the drug sensitivity score in test [7], in test [1], in [9] and in test [4] was 0 in each case. For the same molecule, the “relative viability EC50” value in test [10], in test [2], in test [11] and in test [5] was > 10 µM throughout. The cell viability was 98.7% in test [12] (1 nM); 100% in [12] (10 nM); 99.3% in test [12] (100 nM); 106% in [12] (1000 nM); 94.8% in [12] (10000 nM); 110% in test [3] (1 nM). The cell viability in [3] (10 nM) was 96.7%; in test [3] (100 nM), 103%; in test [3] (1000 nM) it was 96.4%; in test [3] (10000 nM) it was 102%; in [13] (1 nM), 91.9%; in test [13] (10 nM), 84.2%. In addition, the cell viability in test [13] (100 nM) is 104%; in test [13] (1000 nM), 94.4%; in [13] (10000 nM), 91.6%; in test [6] (1 nM), 100%; in test [6] (10 nM), 99.1%; in test [6] (100 nM), 93.8%. Also, the cell viability in test [6] (1000 nM) was 97.3%; in [6] (10000 nM) it was 98.9%.
Consider `CN1C(=O)N(C)C2C1N(C)C(=O)N2C` (centres undefined) [mebicar], for which the drug sensitivity score in [7], in test [1] and in [9] was 0 in each case. Moreover, the “relative viability EC50” value in test [10], in [2] and in test [11] was > 10 µM throughout. For the same molecule, the cell viability amounted to 104% in test [12] (1 nM); 104% in test [12] (10 nM); 99.8% in test [12] (100 nM); 106% in test [12] (1000 nM); 102% in test [12] (10000 nM); 110% in test [3] (1 nM). In addition, the cell viability in [3] (10 nM) was 107%; in [3] (100 nM), 114%; in [3] (1000 nM), 97.9%; in test [3] (10000 nM), 92.2%; in [13] (1 nM) it was 101%; in test [13] (10 nM), 106%. The cell viability in test [13] (100 nM) was 98.5%; in test [13] (1000 nM), 97.9%; in test [13] (10000 nM) it was 95.8%.
On to `CC(CNC(=O)c1cccnc1)NC(=O)c1cccnc1` (centres undefined) [nicaraven], for which the drug sensitivity score in test [7], in [1], in test [9] and in [4] was 0 throughout. In addition, the “relative viability EC50” value in test [10], in test [2], in test [11] and in test [5] was > 10 µM in each case. Besides, the cell viability in test [12] (1 nM) worked out at 97%; in test [12] (10 nM) it was 97.2%; in test [12] (100 nM), 98.7%; in test [12] (1000 nM) it was 99.8%; in [12] (10000 nM), 92.1%; in test [3] (1 nM) it was 94.7%. In addition, the cell viability was 106% in test [3] (10 nM); 90.8% in test [3] (100 nM); 101% in test [3] (1000 nM); 98.9% in test [3] (10000 nM); 97.3% in test [13] (1 nM); 103% in [13] (10 nM). The cell viability in [13] (100 nM) is 94.9%; in test [13] (1000 nM) it was 97.6%; in [13] (10000 nM) it was 89.4%; in [6] (1 nM), 93.8%; in test [6] (10 nM) it was 99.1%; in test [6] (100 nM) it was 101%. The cell viability in test [6] (1000 nM) came to 97.3%; in test [6] (10000 nM) it was 97.7%.
